Earlier results, collected in patent US20080089848A1, “INTRATHECAL INJECTION OF MICROBUBBLES” (priority 2006, published 2008).

Tests used:
vasospasm [1] = tested on: vasospasm
vasospasm following SAH = details: collagen devices, canines with autologous blood in the cisterna magna
[2] = tested on: primary murine cerebellar granule neurons
[3] = tested on: glutamate-induced nitric oxide related neurotoxicity
[4] = tested on: beta amyloid protein; dopaminergic neurons
vasospasm [5] = tested on: vasospasm; remark: listed apart in the source
traumatic brain injury = details: parental administration no more than 12 hours post-trauma
[6] = systemic administration, patients with intracranial hypertension
[7] = tested on: middle cerebral artery occlusion
[8] = intracisternal injection, patients, Hamada 2003
[9] = rat MCA occlusion, retrograde cerebral vein infusion

NCCN(CCN)/[N+]([O-])=N/O [diethylene-triamine/NO]
vasospasm in rabbits (vasospasm [1]; implants in the cisterna magna, Pradilla): prevented vasospasm
vasospasm in the rabbit basilar artery (vasospasm [1]; implants in the subarachnoid space, Gabikian): prevented vasospasm

hirudin
reduction in the diameter of the basilar artery (vasospasm following SAH): lowered the reduction in the diameter of the basilar artery

TNF-α
concentration that markedly reduces the capacity of IGF-I to promote survival [2]: ≥ 10 pg/mL

CN(c1nc2ccccc2s1)C1CCN(C[C@H](O)COc2ccc(F)c(F)c2)CC1 [lubeluzole]
glutamate-induced nitric oxide related neurotoxicity [3]: inhibits

VEGF
neuroprotection in AD ([4]; Yang): provides neuroprotection in AD by binding to beta amyloid protein
neuroprotection in PD ([4]; low dose, Yasuhara): neuroprotective towards dopaminergic neurons

urokinase
safety and prevention of vasospasms (vasospasm [5]; human, in vivo): safe and reasonable means of preventing vasospasms
occurrence of symptomatic vasospasm (vasospasm [5]; [8]): significantly reduced
rate of permanent neurological deficits (vasospasm [5]; [8]): lower rate

[Mg+2] [magnesium]
brain magnesium homeostasis (traumatic brain injury): restores brain magnesium homeostasis
motor and cognitive outcome (traumatic brain injury): profoundly improves both motor and cognitive outcome

O=S(=O)([O-])[O-].[Mg+2] [magnesium sulfate]
CSF ionized magnesium concentration [6]: failed to increase
increase of plasma magnesium levels [6]: > 50%

CCNCc1cc(C(C)(C)C)c(O)c(C(C)(C)C)c1 [LY231617]
BBB permeability [7, 9]: significant improvement
local cerebral blood flow [7, 9]: significant increase
ischemic damage ([7]; seven hours post-MCA occlusion): significantly reduced
